BindingDB's records for doi:10.1002/cbic.200400192 (Max-Planck-Institut FÜR Molekulare Physiologie, 2005)

Assays:
Experiment in all cases: Inhibition Assay
[1] = molecular target: Angiopoietin-1 receptor (Homo sapiens, UniProt Q02763)
Experimental: (§1) The kinase-catalyzed phosphorylation of poly(Glu4-Tyr) in the presence of varying concentrations of inhibitor was determined. The kinase were employed as fusion proteins of glutathion-S-transferase (GST) and the kinase domain. The relative amount of phosphorylated substrate was quantified by antiphosphotyrosine enzyme-linked immunosorbent assay.

[2] = molecular target: Vascular endothelial growth factor receptor 2 (Homo sapiens, UniProt P35968)
Experimental: as §1

[3] = molecular target: Epidermal growth factor receptor (Homo sapiens, UniProt P00533)
Experimental: as §1

[4] = molecular target: Fibroblast growth factor receptor 1 (Homo sapiens, UniProt P11362)
Experimental: as §1

[5] = molecular target: Insulin-like growth factor 1 receptor (Homo sapiens, UniProt P08069)
Experimental: as §1

[6] = molecular target: Vascular endothelial growth factor receptor 3 (Homo sapiens, UniProt P35916)
Experimental: as §1

Chain of Epidermal growth factor receptor (P00533 whole entry): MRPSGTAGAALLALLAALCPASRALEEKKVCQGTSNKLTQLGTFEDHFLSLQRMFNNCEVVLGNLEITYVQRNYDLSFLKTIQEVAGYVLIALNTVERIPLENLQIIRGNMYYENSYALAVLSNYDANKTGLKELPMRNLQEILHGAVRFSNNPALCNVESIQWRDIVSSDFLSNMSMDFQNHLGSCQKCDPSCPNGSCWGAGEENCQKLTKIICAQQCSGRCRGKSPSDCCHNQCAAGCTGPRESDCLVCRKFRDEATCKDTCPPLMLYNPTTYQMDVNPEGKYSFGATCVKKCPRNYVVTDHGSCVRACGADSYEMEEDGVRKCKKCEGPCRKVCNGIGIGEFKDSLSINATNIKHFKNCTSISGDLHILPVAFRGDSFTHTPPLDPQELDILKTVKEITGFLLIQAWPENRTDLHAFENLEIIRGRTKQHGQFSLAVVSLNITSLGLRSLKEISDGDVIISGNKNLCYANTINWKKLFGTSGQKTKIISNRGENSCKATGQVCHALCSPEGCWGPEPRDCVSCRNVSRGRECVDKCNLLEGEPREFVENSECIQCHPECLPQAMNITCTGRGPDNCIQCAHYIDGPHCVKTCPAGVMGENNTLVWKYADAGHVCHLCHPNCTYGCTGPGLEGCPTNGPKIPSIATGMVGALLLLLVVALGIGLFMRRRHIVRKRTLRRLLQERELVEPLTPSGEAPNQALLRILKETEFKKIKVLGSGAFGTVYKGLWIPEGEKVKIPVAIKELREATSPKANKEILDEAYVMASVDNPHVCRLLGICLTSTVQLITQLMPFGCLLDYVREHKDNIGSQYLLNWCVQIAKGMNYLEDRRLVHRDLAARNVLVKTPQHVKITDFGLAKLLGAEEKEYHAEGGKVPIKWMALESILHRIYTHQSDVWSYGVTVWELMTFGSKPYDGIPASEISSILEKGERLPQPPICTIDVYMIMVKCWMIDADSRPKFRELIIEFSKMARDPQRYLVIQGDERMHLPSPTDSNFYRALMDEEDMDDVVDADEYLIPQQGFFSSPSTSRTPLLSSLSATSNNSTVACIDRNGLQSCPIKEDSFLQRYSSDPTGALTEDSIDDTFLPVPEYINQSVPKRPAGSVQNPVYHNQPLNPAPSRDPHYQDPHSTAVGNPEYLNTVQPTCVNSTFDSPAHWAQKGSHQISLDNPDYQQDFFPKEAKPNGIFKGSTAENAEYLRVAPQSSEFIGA
Chain of Vascular endothelial growth factor receptor 3 (P35916 whole entry): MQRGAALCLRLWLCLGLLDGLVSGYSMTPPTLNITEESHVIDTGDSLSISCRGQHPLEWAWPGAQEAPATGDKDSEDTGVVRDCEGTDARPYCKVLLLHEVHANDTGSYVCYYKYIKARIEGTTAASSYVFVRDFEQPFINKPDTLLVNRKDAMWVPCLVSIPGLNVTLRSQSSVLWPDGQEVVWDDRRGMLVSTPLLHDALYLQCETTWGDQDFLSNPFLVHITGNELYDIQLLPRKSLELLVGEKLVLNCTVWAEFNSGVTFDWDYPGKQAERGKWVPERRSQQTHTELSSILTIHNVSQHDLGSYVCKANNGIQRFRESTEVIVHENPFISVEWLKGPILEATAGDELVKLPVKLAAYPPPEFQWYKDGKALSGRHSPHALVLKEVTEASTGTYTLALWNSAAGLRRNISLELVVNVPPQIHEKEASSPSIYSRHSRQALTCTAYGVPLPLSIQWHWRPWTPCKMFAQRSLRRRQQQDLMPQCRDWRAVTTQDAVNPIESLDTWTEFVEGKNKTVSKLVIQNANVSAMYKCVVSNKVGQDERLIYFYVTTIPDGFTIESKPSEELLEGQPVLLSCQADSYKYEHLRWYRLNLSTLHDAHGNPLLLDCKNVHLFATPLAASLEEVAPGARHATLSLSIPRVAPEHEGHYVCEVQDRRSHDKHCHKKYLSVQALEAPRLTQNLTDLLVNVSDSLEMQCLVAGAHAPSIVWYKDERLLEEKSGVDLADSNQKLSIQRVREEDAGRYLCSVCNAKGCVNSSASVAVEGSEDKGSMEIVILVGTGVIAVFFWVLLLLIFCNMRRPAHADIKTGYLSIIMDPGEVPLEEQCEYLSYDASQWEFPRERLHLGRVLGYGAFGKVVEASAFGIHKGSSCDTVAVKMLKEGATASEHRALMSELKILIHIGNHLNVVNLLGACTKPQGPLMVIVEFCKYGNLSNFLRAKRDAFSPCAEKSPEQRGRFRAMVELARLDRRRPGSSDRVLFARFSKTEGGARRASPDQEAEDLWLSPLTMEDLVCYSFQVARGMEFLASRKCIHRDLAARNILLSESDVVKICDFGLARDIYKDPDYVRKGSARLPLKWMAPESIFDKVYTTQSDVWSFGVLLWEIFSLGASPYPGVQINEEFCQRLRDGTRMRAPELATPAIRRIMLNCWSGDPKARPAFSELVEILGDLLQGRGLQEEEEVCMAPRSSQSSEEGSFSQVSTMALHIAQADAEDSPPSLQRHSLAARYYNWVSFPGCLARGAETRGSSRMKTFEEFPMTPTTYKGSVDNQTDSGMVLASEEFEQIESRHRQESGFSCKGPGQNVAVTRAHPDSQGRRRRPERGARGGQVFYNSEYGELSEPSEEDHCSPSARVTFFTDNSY
Chain of Vascular endothelial growth factor receptor 2 (P35968 whole entry): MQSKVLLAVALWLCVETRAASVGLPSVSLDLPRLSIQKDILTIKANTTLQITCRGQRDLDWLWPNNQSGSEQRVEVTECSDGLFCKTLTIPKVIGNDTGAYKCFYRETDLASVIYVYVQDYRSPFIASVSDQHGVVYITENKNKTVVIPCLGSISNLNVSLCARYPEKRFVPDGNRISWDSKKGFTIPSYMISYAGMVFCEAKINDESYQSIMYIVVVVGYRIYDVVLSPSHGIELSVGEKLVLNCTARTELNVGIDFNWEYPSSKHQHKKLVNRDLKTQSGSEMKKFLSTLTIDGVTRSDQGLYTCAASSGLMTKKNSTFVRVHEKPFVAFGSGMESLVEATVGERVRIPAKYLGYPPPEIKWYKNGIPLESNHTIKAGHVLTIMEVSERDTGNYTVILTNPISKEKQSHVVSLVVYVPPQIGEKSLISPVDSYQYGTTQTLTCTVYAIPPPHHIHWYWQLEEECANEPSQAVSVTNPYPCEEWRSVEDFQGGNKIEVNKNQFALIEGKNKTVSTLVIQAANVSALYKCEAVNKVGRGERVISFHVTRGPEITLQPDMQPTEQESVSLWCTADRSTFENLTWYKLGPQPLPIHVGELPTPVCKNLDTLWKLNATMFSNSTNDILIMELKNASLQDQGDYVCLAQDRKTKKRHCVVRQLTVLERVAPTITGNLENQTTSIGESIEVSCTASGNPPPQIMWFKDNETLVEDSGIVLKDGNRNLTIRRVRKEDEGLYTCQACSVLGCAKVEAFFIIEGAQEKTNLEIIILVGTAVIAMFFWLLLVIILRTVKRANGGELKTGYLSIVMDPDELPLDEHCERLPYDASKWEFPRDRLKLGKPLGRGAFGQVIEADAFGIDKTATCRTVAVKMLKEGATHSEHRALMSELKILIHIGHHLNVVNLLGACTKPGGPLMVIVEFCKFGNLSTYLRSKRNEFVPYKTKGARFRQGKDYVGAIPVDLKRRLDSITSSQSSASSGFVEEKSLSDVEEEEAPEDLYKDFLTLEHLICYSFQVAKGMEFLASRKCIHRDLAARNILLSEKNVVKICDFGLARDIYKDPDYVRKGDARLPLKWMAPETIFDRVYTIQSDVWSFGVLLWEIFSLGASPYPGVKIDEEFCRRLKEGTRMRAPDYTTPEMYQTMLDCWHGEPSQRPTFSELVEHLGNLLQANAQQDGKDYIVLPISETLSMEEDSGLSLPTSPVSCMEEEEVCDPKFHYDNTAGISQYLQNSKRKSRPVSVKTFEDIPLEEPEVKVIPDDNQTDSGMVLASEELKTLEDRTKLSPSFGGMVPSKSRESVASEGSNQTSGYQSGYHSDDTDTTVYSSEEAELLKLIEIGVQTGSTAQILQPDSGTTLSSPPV
Chain of Angiopoietin-1 receptor (Q02763 whole entry, the tested form may be a part): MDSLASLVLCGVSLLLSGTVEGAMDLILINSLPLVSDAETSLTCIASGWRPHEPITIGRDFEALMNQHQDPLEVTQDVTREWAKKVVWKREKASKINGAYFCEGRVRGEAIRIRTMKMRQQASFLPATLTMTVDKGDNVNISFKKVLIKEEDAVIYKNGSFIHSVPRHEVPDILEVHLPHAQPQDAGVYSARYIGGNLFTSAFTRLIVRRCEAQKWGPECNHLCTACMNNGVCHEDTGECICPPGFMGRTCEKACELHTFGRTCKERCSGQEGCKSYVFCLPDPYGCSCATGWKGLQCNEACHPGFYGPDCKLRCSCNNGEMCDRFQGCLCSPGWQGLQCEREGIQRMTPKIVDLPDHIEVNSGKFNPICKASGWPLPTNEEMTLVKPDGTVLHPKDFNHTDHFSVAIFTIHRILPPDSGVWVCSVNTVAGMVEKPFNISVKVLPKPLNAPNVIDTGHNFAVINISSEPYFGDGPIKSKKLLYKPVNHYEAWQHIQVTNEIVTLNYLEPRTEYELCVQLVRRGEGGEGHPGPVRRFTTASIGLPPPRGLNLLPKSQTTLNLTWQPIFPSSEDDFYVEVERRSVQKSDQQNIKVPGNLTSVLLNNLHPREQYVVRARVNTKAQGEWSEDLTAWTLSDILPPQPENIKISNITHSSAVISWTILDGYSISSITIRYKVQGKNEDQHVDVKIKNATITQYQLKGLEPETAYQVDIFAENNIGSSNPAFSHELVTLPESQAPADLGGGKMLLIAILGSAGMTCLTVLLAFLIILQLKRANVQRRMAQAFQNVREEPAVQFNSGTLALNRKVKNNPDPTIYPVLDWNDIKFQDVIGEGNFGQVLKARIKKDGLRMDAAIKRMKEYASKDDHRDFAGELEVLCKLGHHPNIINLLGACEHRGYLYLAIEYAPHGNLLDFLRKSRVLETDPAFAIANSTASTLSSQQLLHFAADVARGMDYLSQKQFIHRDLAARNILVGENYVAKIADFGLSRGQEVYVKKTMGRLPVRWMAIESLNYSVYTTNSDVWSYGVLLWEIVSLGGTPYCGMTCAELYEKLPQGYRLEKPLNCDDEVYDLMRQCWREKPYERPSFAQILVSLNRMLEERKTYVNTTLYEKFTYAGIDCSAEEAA

IC50 [1] [µM] | IC50 [2] [µM] | IC50 [3] [µM] | IC50 [4] [µM] | IC50 [5] [µM] | IC50 [6] [µM] | Structure (SMILES)
1 |  |  |  |  |  | CC1=C(CC(=O)O)c2cc(Br)ccc2/C1=C\c1ccccc1 [Sulindac analogue, 18]
5 |  |  |  |  |  | CCC1=C(CC(=O)O)c2cc(/C=C/C(=O)OC(C)(C)C)ccc2/C1=C\c1ccsc1 [Sulindac analogue, 23]
5 |  |  |  |  |  | CC1=C(CC(=O)O)c2cc(F)ccc2/C1=C\c1ccc(F)c(F)c1 [Sulindac analogue, 10]
5 |  |  |  |  |  | CC1=C(CC(=O)O)c2cc(F)ccc2/C1=C\c1cccs1 [Sulindac analogue, 12]
 | 8 |  |  |  |  | CC1=C(CC(=O)O)c2cc(F)ccc2/C1=C\c1ccoc1 [Sulindac analogue, 14]
11 |  |  |  |  |  | CC1=C(CC(=O)O)c2cc(F)ccc2/C1=C\c1cccc(OCc2ccccc2)c1 [Sulindac analogue, 11]
7 |  |  |  |  |  | CC1=C(CC(=O)O)c2cc(I)ccc2/C1=C\c1cccc(OCc2ccccc2)c1 [Sulindac analogue, 22]
5 |  |  |  |  |  | CCC1=C(CC(=O)O)c2cc(C#Cc3ccccc3)ccc2/C1=C\c1ccsc1 [Sulindac analogue, 24]
1 | 3 | 12 | 23 | 4 | 4 | CC1=C(CC(=O)O)c2ccc(Br)cc2/C1=C\c1ccsc1 [Sulindac analogue, 19]
5 |  | 8 |  | 7 | 14 | CC1=C(CC(=O)O)c2cc(Cl)ccc2/C1=C\c1ccoc1 [Sulindac analogue, 17]
11 |  |  |  | 71 |  | CC1=C(CC(=O)O)c2ccc(Br)cc2/C1=C/c1ccsc1 [Sulindac analogue, 20]
0.6 | 14 |  |  |  | 15 | CC1=C(CC(=O)O)c2cc(F)ccc2/C1=C\c1ccsc1 [Sulindac analogue, 13]
3 | 24 | 22 |  | 13 | 15 | CC1=C(CC(=O)O)c2ccc(Br)cc2/C1=C\c1ccoc1 [Sulindac analogue, 21]
2 |  |  |  |  |  | CCC1=C(CC(=O)O)c2cc(F)ccc2/C1=C\c1ccc(OCc2ccccc2)cc1 [Sulindac analogue, 16]
1 | 5 | 0.9 | 3 |  |  | CCC1=C(CC(=O)O)c2cc(F)ccc2/C1=C\c1ccoc1 [Sulindac analogue, 15]
